Columns and labels:
[1] = tested on: anti-CD19 CAR T cells; assay: Cytokine production in supernatants of CAR-T / K562-CD19 co-cultures (MSD); assay type: cell-based, human
Excerpt: (§1) To generate CAR-expressing T cells, T cells were isolated by immunoaffinity-based enrichment from three healthy human donor subjects, and cells from each donor were activated and transduced with a viral vector encoding an anti-CD19 CAR. The CAR contained an anti-CD19 scFv, an Ig-derived spacer, a human CD28-derived transmembrane domain, a human 4-1BB-derived intracellular signaling domain and a human CD3 zeta-derived signaling domain. The nucleic acid construct encoding the CAR also included a truncated EGFR (tEGFR) sequence for use as a transduction marker, separated from the CAR sequence by a self-cleaving T2A sequence.
(§2) CAR-expressing CD4+ and CD8+ cells were mixed 1:1 for each donor, individually, and the pooled cells for each donor assessed in vitro under various conditions.
CAR-T cells generated as described above were plated at 100,000 cells/well on 96 well Poly-D-Lysine coated plates to which irradiated target cells (K562-CD19) were added at an effector to target ratio of 2.5:1. […] Culture supernatants were harvested every 24 hrs at days 1, 2, 3 and 4, and IFNγ, IL-2, TNFα, IL-4 and IL-10 were measured from the culture supernatants using cytokine kits from Meso Scale Discovery (MSD).

[2] = tested on: CAR+ T cells; assay: Ex vivo immunophenotyping (flow cytometry, t-SNE) of CAR+ T cells at day 12 post CAR T transfer; assay type: in vivo, NSG mice
Experimental: (§3) NSG mice described in Example 2 were intravenously injected on day 0 with 5×10^5 Nalm-6 cells expressing firefly luciferase. […] To permit assessment of the effect of a combination therapy with the inhibitor, a suboptimal dose of anti-CD19 CAR T cells was i.v. injected into the mice at 5×10^5/mouse at day 5. As a control, mice were administered the vehicle control without administration of the CAR-T cells or inhibitor.
Flow cytometry histograms showing the individual expression profiles of CD4, CD8, CD62L, CD45RA, CD44 and CXCR3 from the 4 gated t-SNE in FIG. 8B overlaid on the expression of the total population (shaded) is shown in FIG. 8C.

[3] = tested on: CD19+ Nalm-6 disseminated tumor line; assay: Disseminated Nalm-6 tumor xenograft mouse model, ibrutinib by daily oral gavage; assay type: in vivo, NSG mice
Excerpt: On day zero (0), NSG mice were intravenously injected with 5×10^5 Nalm-6 cells expressing firefly luciferase. […] To permit assessment of the effect of a combination therapy with the inhibitor, a suboptimal dose of anti-CD19 CAR T cells from two different donors (generated by transducing cells derived from samples of human donor subjects essentially as described above) were i.v. injected into each mouse at a concentration of 5×10^5 CAR+ T cells per mouse at day 5. […] Eight (N=8) mice per group were monitored.
Following treatment as described above, tumor growth over time was measured by bioluminescence imaging and the average radiance (p/s/cm^2/sr) was measured. Survival of treated mice also was assessed over time.

[4] = tested on: anti-CD19 CAR-T cells from DLBCL subjects; assay: Serial restimulation and cytolytic function of anti-CD19 CAR-T cells manufactured from DLBCL patients; assay type: cell-based, human
Excerpt: Cells were subjected to serial restimulation over a 21 day culture period and monitored for cell expansion and cytotoxic activity.

[5] = tested on: anti-CD19 CAR T cells; assay: Expression of CAR-T cell surface markers by flow cytometry after stimulation with irradiated K562-CD19 cells; assay type: cell-based, human
Excerpt: as §1, §2
CAR-T cells generated as described above were plated at 100,000 cells/well on 96 well Poly-D-Lysine coated plates. Irradiated K562-CD19 target cells were added at an effector to target ratio of 2.5:1. […] Cells were harvested at 1, 2, 3, and 4 days, and were analyzed by flow cytometry for T cell activation and differentiation surface markers CD69, CD107a, PD-1, CD25, CD38, CD39, CD95, CD62L, CCR7, CD45RO and for truncated EGFR (a surrogate marker for CAR-transduced cells).

[6] = tested on: anti-CD19 CAR T cells; assay: Cytolytic activity of anti-CD19 CAR T cells co-cultured with K562-CD19 target cells in the presence of ibrutinib (IncuCyte); assay type: cell-based, human
Excerpt: as §1, §2
The target cells were labeled with NucLight Red (NLR), to permit tracking of target cells by microscopy.

[7] = in vivo; cited from earlier work
[8] = tested on: CAR-expressing T cells; assay: RNA-Seq molecular signature of CAR-expressing T cells after 18 days of serial stimulation; assay type: cell-based, human
Experimental: RNA isolation was performed using the RNEasy Micro Kit (Qiagen). Samples were sequenced and RNASeq reads were mapped to the human genome (GRCh38) and aligned to the GENCODE release 24 gene model. […] Differentially expressed genes were identified by imposing a log2 fold change cutoff of 0.5 and a Benjamini-Hochberg adjusted false discovery rate (FDR) cutoff of 0.05.

[9] = tested on: anti-CD19 CAR T cells; assay: TH1 phenotype (CD4+CXCR3+CRTH2-) and activation/memory markers by flow cytometry during serial restimulation; assay type: cell-based, human
Experimental: (§4) The ability of cells to expand ex vivo following repeated stimulations in some aspects can indicates capacity of CAR-T cells to persist (e.g., following initial activation) and/or is indicative of function and/or fitness in vivo (Zhao et al. (2015) Cancer Cell, 28:415-28). Anti-CD19 CAR+ T cells generated as described above were plated in triplicate at 100,000 cells/well on 96 well Poly-D-Lysine coated plates, and irradiated target cells (K562-CD19) were added at an effector to target ratio of 2.5:1. […] A total of 7 rounds of stimulation during a 25 day culture period were carried out.
A serial restimulation assay was performed as described above and cells were harvested at various times and analyzed by flow cytometry to assess percentage of TH1-phenotype (assessed as CD4+CXCR3+CRTH2−) T cells or TH2-phenotype (assessed as CD4+CXCR3−CRTH2+).

[10] = tested on: CAR T cells; assay: CD62L expression by flow cytometry after 18 days of serial stimulation; assay type: cell-based, human; conditions: donors 2 and 3
Experimental: as §4

[11] = tested on: anti-CD19 CAR T cells; assay: Serial restimulation assay of anti-CD19 CAR+ T cells with K562-CD19 target cells; assay type: cell-based, human; conditions: day 18; both concentrations (50, 500 nM); two of three donors
Excerpt: as §1, §2, §4

[12] = tested on: CAR+ T cells and Nalm-6 tumor cells; assay: Levels of CAR+ T cells and tumor cells in blood, bone marrow and spleen of Nalm-6 bearing mice; assay type: in vivo, NSG mice
Experimental: as §3
Samples were analyzed to assess presence and levels of CAR T cells (based on expression of the surrogate marker using an anti-EGFR antibody) and/or tumor cells at days 7, 12, 19 and 26 post CAR+ T cell transfer.

[13] = tested on: anti-CD19 CAR T cells; assay: Gene expression analysis (Nanostring Immune V2 panel) after 18 days of serial stimulation; assay type: cell-based, human; conditions: 50 nM or 500 nM; day 18 of serial restimulation
Experimental: as §4
At day 18 after serial stimulation, RNA was isolated from anti-CD19 CAR T cells and Nanostring Immune V2 panel tests were run across 594 genes. The log 2 (fold change) of each gene was plotted against the −log 10(Raw p-value) derived from ANOVA tests of unscaled housekeeping gene normalized to count data for treatment versus control.

[14] = tested on: CD19+ Nalm-6 disseminated tumor line; assay: Disseminated Nalm-6 tumor xenograft mouse model, ibrutinib in drinking water; assay type: in vivo, NSG mice
Experimental: as §3

C=CC(=O)N1CCC[C@@H](n2nc(-c3ccc(Oc4ccccc4)cc3)c3c(N)ncnc32)C1 [ibrutinib, 1-[(3R)-3-[4-amino-3-(4-phenoxyphenyl)pyrazolo[3,4-d]pyrimidin-1-yl]piperidin-1-yl]prop-2-en-1-one]
IFN-γ and IL-2 production ([1]; 50 nM): some increase | cytokine production ([1]; 50 nM, some donors): modestly increased | cytokine concentrations ([1]; physiological concentrations of ibrutinib): did not significantly decrease | population 4 as percentage of CAR-T cells ([2]; bone marrow, day 12, ibrutinib-treated animals): 15.2% | phenotype of CAR+ T cells isolated from bone marrow ([2]; day 12, CAR-T cells with ibrutinib vs control): phenotypic changes were observed | CD8+CD44hi CXCR3hi CD45RAlo CD62Lhi (population 2) and CD4+CD44hi CXCR3int CD45RAhi CD62Lhi (population 4) in bone marrow vs control mice ([2]; day 12 post CAR T transfer): increase | survival vs CAR T and vehicle ([3]; greater time points, two donors, ibrutinib with CAR T, p<0.001): significantly increased survival | median survival vs suboptimal anti-CD19 CAR T cell dose + vehicle ([3]; ibrutinib 25 mg/kg qd P.O. with CAR-T cells): increased median survival | tumor growth vs CAR-T cells and vehicle ([3]; ibrutinib 25 mg/kg qd P.O. with suboptimal dose of anti-CD19 CAR T cells, p<0.001, p<0.0001): significantly decreased tumor growth | tumor burden (average radiance) vs vehicle ([3]; ibrutinib alone, 25 mg/kg qd P.O., ibrutinib-resistant model): no effect on tumor burden | cytolytic activity ([4]; 50 nM, 16 days of serial stimulation, one patient, P<0.01): increase in cytolytic activity | cytolytic function ([4]; 500 nM, 16 days of serial stimulation, each subject): increase in cytolytic function | proliferation of CAR T cells (cell doublings) ([4]; 50 and 500 nM, 21 day culture, both DLBCL patients): did not inhibit the proliferation | expression of truncated EGFR surrogate marker, activation markers CD25, CD38, CD39, CD95, CD62L and phenotypic markers CCR7, CD62L, CD45RO ([5]; 5000, 500, 50, 5 and 0.5 nM, 3 donors, up to 4 days): no significant effect | expression levels of CD69, CD107a or PD-1 ([5]; CD4+ or CD8+ cells cultured in the presence of ibrutinib): subtle decrease in expression levels | percentage of anti-CD19 CAR T cells expressing CD69, CD107a or PD-1 ([5]; highest (supraphysiological) concentration tested): subtle decrease in the percentage | phenotype of cells as central memory (TCM) or effector memory (TEM) subsets (CCR7, CD45RA) ([5]; over four days after stimulation): did not affect the phenotype | cytolytic function of the anti-CD19 CAR T cells ([6]; all concentrations tested (0.5-5000 nM) during the co-culture): did not inhibit | target cell killing ([6]; one donor, P<0.0001): modestly increased target cell killing | cytolytic activity of anti-CD19 CAR-expressing T cells (target cell killing normalized to untreated control, AUC) ([6]; two donors, concentration increased up to 500 nM, E:T 2.5:1, 4 days): did not significantly impact | Cmax [7]: 227 nM | gene expression changes ([8]; 50 nM, day 18): not significant, similar trends | expression of HES6, HIC1, LZTFL1, NRIP1, CD38 and RARRES3 ([8]; day 18 serial stimulation): downregulation | expression of MSC ([8]; day 18 serial stimulation): upregulation | expression of SELL/CD62L ([8]; day 18 serial stimulation): increases | expression of granzyme A and CD38 ([8]; day 18 serial stimulation): decreases | percentage of TH1 cells ([9]; 500 nM, P<0.01): further enhanced | additional CAR T activation or memory markers ([9]; CAR T cells from the serial stimulation assay): No significant effects | percentage of CAR+ T cells with TH1 phenotype ([9]; after serial stimulation, greater with increasing concentrations): increase the percentage | CD62L expression [10]: significant increase | cell numbers and population doublings of anti-CD19 CAR T cells [11]: enhanced cell numbers and population doublings | tumor cells detected in the blood, bone marrow or spleen vs vehicle alone ([12]; CAR+ cell treatment combined with ibrutinib): significantly fewer tumor cells | circulating CAR+ T cells vs CAR+ T cells and vehicle ([12]; blood, ibrutinib in drinking water): significant increase | number of CAR-T cells in the blood ([12]; day 19 post CAR-T cell transfer, p<0.05): significant increase in the number of cells | gene expression (594 genes) [13]: did not significantly alter gene expression | tumor growth vs CAR T with vehicle alone ([14]; ibrutinib 25 mg/kg/day in drinking water with CAR T): significantly (P<0.001) decreased tumor growth | median survival vs suboptimal anti-CD19 CAR T cell dose + vehicle ([14]; ibrutinib 25 mg/kg/day in drinking water with anti-CD19 CAR-T cells, p<0.001): increased median survival

Source: US20210121466A1, “COMBINATION THERAPY OF A CHIMERIC ANTIGEN RECEPTOR (CAR) T CELL THERAPY AND A KINASE INHIBITOR” (Juno Therapeutics, Inc., priority 2018, published 2021)
